Assay results taken from PMC7557242 (ACS Omega, 2020).
Where two headings read alike, the source gives them in different places.

Tests used:
plasma protein = details: cited from earlier work
[1] = system: SAs from different species; details: CSA versus HSA
human serum albumin = details: previous study, cited from earlier work
serum albumin (SA) = details: after intravenous injection, in most of the cases; cited from earlier work

In the case of `CC(C)c1cccc(C(C)C)c1O` [PR, 2,6-Diisopropylphenol], the “% PPB (plasma protein binding)” value (plasma protein) is listed as 96–98%, the “difference between UC50 values” [1] is listed as 0.07 and the ΔGPBSA (human serum albumin; PR1) is listed as -23.44 kcal/mol. For the same compound, the ΔGPBSA (human serum albumin; PR2) was -19.03 kcal/mol and the “PR bound to SA” value (serum albumin (SA)) was “approximately 80%”.
